Calls of active or inactive are those of the source.
Key:
cells [1] = type: functional, cell-based
cells [2] = type: functional, cell-based; remark: listed apart in the source
[3] = target: T1, Microphthalmia-associated transcription factor (Homo sapiens, UniProt O75030); test: reducers of TRPM1 reporter luminescence, concentration series – cell-based, SK-MEL-5, cherry-picked, set 3, MITF inhibitor project, dose response (AID 493073); type: functional;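 also: SK-MEL-5 melanoma cells with luciferase driven by the MITF target TRPM1 promoter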
T1 sequence (O75030 whole entry): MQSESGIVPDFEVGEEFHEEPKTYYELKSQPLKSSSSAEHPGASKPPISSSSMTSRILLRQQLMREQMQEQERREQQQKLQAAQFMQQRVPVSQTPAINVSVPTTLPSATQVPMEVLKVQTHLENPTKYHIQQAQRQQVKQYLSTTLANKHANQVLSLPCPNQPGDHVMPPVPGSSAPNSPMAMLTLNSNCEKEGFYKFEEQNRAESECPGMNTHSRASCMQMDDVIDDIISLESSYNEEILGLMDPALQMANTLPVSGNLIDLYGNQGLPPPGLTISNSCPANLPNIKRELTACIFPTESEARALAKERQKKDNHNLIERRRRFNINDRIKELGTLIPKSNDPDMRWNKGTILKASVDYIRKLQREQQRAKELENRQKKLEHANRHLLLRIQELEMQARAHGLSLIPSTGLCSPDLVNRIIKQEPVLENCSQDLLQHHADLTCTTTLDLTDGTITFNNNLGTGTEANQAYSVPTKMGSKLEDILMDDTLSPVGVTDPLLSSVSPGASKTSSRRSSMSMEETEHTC

SN12K1 = test: cells; type: functional; conditions: Homo sapiens
P388/ADR = test: cells; type: functional; conditions: Mus musculus
[4] = target: T2, Heat shock factor protein 1 (Mus musculus, UniProt P38532); test: decrease of HSF1-responsive luciferase luminescence – cell-based, NIH3T3, dose retest, confirmation (AID 2382); type: functional;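 also: NIH3T3 fibroblasts with HSF1-driven luciferase reporter stressed by proteasome inhibitor MG132; luminescence from HSF1-driven luciferase expression after 8 hours of MG132 stress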
T2 sequence (P38532 whole entry): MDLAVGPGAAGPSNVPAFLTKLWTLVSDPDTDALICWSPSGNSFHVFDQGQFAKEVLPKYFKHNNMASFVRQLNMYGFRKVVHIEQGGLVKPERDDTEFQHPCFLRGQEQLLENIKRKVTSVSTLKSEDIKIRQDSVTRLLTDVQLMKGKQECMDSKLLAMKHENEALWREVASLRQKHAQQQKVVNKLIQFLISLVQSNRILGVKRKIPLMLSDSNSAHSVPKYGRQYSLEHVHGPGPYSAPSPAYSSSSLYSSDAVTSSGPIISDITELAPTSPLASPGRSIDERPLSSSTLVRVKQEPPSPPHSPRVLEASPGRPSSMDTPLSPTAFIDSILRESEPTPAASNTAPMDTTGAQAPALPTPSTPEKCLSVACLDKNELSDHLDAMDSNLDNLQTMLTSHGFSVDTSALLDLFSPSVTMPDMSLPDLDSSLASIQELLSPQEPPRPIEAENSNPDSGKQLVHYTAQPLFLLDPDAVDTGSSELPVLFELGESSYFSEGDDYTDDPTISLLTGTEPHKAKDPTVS

[5] = Luminescence Cell-Based Dose Response HTS to Identify Inhibitors of 5'UTR Stem-Loop Driven Prion Protein mRNA Translation in H4 Neuroglioblastoma Cells. [Related pubchem assays: 1827 (Project Summary), 1813 (Primary HTS)]; type: functional
[6] = alpha-synuclein stem-loop luciferase translation blockers – H4 neuroglioma cells, luminescence, confirmation (AID 1988); type: functional, cell-based
[7] = target: T3, Polyadenylate-binding protein 1 (Homo sapiens, UniProt P11940); test: MLLE binding blockers, Cy5 peptide tracer – biochemical, fluorescence polarization, Cy5-PAM2 peptide, secondary, miRNA deadenylation inhibitor project, dose response (AID 602260); type: functional; conditions: read-out: IC50_Mean
[8] = target: T3, Polyadenylate-binding protein 1; test: MLLE domain peptide-binding blockers, IC50 – biochemical, fluorescence polarization, FITC-PAM2 peptide, dose response (AID 602259); type: functional; conditions: read-out: IC50_Mean
[9] = blockers of HIV-1 envelope-mediated cell-cell fusion – cherry-pick, dose response (AID 652057); type: functional, cell-based
[10] = HIV-1 AD8 envelope cell-cell fusion blockers – cherry-pick, dose response (AID 652062); type: functional, cell-based;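 also: luciferase signal from cell-cell fusion driven by HIV-1 clade B AD8 Env; potency is for inhibitors of fusion seen as a drop in luminescence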
[11] = viability of uninfected HEp-2 cells – cell-based, HTS, cytotoxicity control for RSV inhibitor project, dose response (AID 2410); type: functional; conditions: human respiratory syncytial virus
[12] = luciferase reporter signal suppression in cells – H4 neuroglioma cells, luminescence, dose response (AID 1990); type: functional, cell-based
[13] = target: FAD-linked sulfhydryl oxidase ALR (Homo sapiens, UniProt P55789); test: ALR-catalysed DTT oxidation blockers – biochemical, H2O2 detection, luminescence, cherry-pick, dose response (AID 493248)
H9c2 = test: cells; type: functional, cell-based; conditions: Rattus norvegicus, H9c2, Myocardium;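 also: confirmatory concentration-response retest of ultra-high-throughput screening hits for modulation of myocardial damage; cell death induced by hydrogen peroxide oxidative stress; compound pretreatment for 60 min then peroxide exposure for 2 h; potency is for protecting the cells against peroxide damage rather than for killing them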
[14] = target: T4, RNA-binding protein pos-1 (Caenorhabditis elegans, UniProt G5EF15); test: disruptors of C. elegans POS-1 RNA interaction – biochemical, fluorescence polarization, dose response (AID 1964);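 also: purified POS-1 fused to maltose binding protein made in E. coli; potency of compounds blocking POS-1 binding to fluorescent RNA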
T4 sequence (G5EF15 whole entry): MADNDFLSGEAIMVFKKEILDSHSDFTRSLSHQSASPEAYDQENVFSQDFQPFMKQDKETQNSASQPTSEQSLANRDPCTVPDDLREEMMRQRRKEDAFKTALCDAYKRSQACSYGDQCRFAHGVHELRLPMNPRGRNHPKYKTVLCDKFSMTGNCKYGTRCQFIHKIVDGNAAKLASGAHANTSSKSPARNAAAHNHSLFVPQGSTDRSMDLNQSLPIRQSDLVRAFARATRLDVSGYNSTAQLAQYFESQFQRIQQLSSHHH

[15] = target: T5, Zinc finger protein mex-5 (Caenorhabditis elegans, UniProt Q9XUB2); test: potency of MEX-5 RNA-binding blockers – biochemical, C. elegans, fluorescence polarization, dose response (AID 1960)
T5 sequence (Q9XUB2 whole entry): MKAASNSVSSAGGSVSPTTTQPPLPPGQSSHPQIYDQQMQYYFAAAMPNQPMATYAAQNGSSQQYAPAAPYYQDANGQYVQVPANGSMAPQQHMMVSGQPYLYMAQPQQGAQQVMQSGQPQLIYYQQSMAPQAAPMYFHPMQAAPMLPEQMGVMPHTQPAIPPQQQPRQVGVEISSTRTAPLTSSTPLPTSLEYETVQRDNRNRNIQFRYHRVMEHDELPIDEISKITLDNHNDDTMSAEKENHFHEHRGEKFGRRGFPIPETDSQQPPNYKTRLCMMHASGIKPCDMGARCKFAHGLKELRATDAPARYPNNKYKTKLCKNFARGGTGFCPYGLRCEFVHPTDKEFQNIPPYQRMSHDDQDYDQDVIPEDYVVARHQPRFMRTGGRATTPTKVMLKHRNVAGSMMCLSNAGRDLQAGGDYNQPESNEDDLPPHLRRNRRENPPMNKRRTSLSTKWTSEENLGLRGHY

[16] = target: T6, Carboxy-terminal domain RNA polymerase II polypeptide A small phosphatase 1 (Homo sapiens, UniProt Q9GZU7); test: CTDSP1 inhibitors, concentration-response, biochemical, absorbance readout, ultra-high-throughput screen actives (AID 540297); type: functional
T6 sequence (Q9GZU7 whole entry): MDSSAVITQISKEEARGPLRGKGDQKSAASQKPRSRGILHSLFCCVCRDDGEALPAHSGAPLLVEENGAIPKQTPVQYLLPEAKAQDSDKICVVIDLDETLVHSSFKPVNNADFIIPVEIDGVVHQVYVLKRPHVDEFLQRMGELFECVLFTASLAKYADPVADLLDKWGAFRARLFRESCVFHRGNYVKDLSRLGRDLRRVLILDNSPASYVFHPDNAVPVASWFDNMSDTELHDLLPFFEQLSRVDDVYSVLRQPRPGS

INS1 = test: INS-1E survival protection against cytokine death – cell-based, luminescence, retest, dose response (AID 449756); type: functional; conditions: Rattus norvegicus;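 also: cell death triggered by IL-1 beta plus TNF-alpha plus IFN-gamma mixture; protective hits raise ATP signal compared with cytokine alone wells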
[17] = HEK-293T viability loss after treatment – luminescence, T-cell screen hits, cytotoxicity control for TCR NF-kB inhibitor project, dose response (AID 489026); type: functional, cell-based;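 also: cells exposed to compound about 14 hours before the viability readout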
[18] = NIH-3T3 fibroblast cytotoxicity, dose response, cytotoxicity control, cell-based, fluorescence, Alamar Blue, secondary assay (AID 2327); type: functional;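 also: NIH-3T3 mouse fibroblasts cultured with fluconazole at 8 µg/mL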
[19] = fluconazole-exposed Candida albicans growth modulators – fluorescence, retest, confirmation (AID 2467); type: functional, cell-based

T3 sequence (P11940 whole entry, the tested form may be a part): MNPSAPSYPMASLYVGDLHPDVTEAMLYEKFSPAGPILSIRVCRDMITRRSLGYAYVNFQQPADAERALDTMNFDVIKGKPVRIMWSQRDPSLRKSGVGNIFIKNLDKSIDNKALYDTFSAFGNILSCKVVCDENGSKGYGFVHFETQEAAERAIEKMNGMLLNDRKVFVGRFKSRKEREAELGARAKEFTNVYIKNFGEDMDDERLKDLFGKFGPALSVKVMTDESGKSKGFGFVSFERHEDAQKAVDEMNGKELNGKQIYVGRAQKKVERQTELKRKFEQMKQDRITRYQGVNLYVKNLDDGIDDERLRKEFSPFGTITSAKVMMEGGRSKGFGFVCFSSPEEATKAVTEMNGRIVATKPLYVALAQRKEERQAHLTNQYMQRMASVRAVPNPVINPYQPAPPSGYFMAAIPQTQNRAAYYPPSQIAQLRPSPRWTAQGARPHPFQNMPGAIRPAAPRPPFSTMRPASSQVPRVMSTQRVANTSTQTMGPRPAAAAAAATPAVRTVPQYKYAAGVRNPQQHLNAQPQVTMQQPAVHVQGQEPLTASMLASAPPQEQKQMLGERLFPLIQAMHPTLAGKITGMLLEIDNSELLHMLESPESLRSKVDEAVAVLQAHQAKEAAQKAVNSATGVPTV
Sequence of FAD-linked sulfhydryl oxidase ALR (P55789 whole entry): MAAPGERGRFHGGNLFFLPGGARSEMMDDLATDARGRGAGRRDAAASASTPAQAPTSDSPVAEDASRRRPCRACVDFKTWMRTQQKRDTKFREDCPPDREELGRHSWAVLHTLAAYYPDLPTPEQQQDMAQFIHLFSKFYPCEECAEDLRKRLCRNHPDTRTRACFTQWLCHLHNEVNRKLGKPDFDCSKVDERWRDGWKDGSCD

COc1ccc(CCNC(=O)c2nnn(CC(=O)Nc3c(C)cc(C)cc3C)c2N)cc1OC
EC50 (cells [1]): > 350 µM (not active) | EC50 (cells [2]): > 350 µM (not active)

Cc1ccc(NC(=O)C2CCN(S(=O)(=O)c3c(C)noc3/C=C/c3ccco3)CC2)nc1
AC50 [3]: 5.56 µM (active)

Cc1[nH]c(=O)[nH]c(=O)c1N(CCF)CCCl [FLUORODOPAN]
GI50 (SN12K1): 249 µM (inactive) | GI50 (P388/ADR): 330 µM (inactive)

CCN1CCN(/C=N/c2nc3c(s2)CCCC3)CC1
EC50 [4]: < 0.16 µM (active) | EC50 [5]: 8.93 µM (active) | AC50 [3]: 6.42 µM (active) | EC50 [6]: 7.71 µM (active)

COc1ccc(-n2ccnc(SCC(=O)NC3CCCC3)c2=O)cc1
IC50 [7]: > 66 µM (inactive) | IC50 [8]: > 66 µM (inactive)

COc1ccc(S(=O)(=O)N(C)C[C@@H]2Oc3ccc(NC(=O)Nc4ccc5c(c4)OCO5)cc3C(=O)N([C@H](C)CO)C[C@@H]2C)cc1
AC50 [9]: 2.3 µM (active) | AC50 [10]: 3.09 µM (active)

CCO[C@H]1OC(C(=O)Nc2ccccc2)=C[C@@H](c2ccc(Br)cc2)[C@@H]1CCCO
EC50 [5]: > 120 µM (not active) | CC50 [11]: 17.6 µM (active) | EC50 [6]: > 120 µM (not active) | EC50 [12]: > 120 µM (not active)

COc1ccc(Sc2nc(-c3ccccc3)ncc2OC)cc1
EC50 [5]: > 120 µM (not active) | EC50 [6]: 16 µM (active) | EC50 [12]: 18.3 µM (active)

COc1cccc(N2CCN(CC(=O)NC(C)c3ccccc3)CC2)c1 (centres undefined)
AC50 [13]: 2.02 µM (active)

COc1ccc(N2CCN(c3ccc(N4C(=O)CC(C)C4=O)cc3[N+](=O)[O-])CC2)cc1 (centres undefined)
EC50 (cells [1]): 41.1 µM (active) | EC50 (cells [2]): > 350 µM (not active)

COC(=O)c1cc2c(C)c(C)c3ccccn3c-2c1C(=O)OC
IC50 [7]: > 66 µM (inactive) | IC50 (H9c2): 47.9 µM (inactive) | IC50 [8]: > 66 µM (inactive)

c1ccc(COC2CCCN(Cc3nc(-c4cccs4)no3)C2)nc1 (centres undefined)
IC50 [7]: > 66 µM (inactive) | IC50 [8]: > 66 µM (inactive)

COc1ccc(C2=CC(c3ccc(F)cc3)n3nnnc3N2)cc1 (centres undefined)
IC50 [7]: > 66 µM (inactive) | IC50 [8]: > 66 µM (inactive)

Nc1ncc(-c2ccccc2)c(-c2ccc(O)cc2O)n1
AC50 [13]: 3.66 µM (active)

Cc1ccccc1NC(=O)CN1C(=O)S/C(=C\c2cccn2-c2cccc(C(=O)O)c2)C1=O
EC50 [14]: > 300 µM (not active) | EC50 [15]: > 300 µM (not active) | IC50 [16]: 4.23 µM (active)

CCc1ccc(C2C(=O)c3ccccc3C2=O)cc1
EC50 (cells [1]): 30.8 µM (active) | EC50 (cells [2]): > 350 µM (not active)

Cn1ncc2c(N3CCN(c4ccc(Cl)c(Cl)c4)CC3)ncnc21
AC50 (INS1): 2.55 µM (active) | IC50 [17]: > 80 µM (inactive)

COC(=O)C1C(=O)N2CCCSC2=C(C#N)C1c1cccs1 (centres undefined)
EC50 (cells [1]): > 350 µM (not active) | EC50 (cells [2]): > 350 µM (not active)

O=C1CCC(C(=O)N2CCCC(Nc3ccc(F)cc3)C2)=NN1 (centres undefined)
AC50 [13]: 24.8 µM (active)

COc1ccc(NCC(=O)N/N=C/C2CCCCC2)cc1
AC50 [13]: 4.57 µM (active)

CC(C)c1ccc(S(=O)(=O)Nc2ccc(O)c(Sc3nc[nH]n3)c2)cc1
AC50 [13]: 1.49 µM (active)

CCN(CCNC(=O)Cn1cc2c(n1)CCCC2)c1ccccc1
AC50 [13]: 2.46 µM (active)

COC(=O)c1[nH]c2ccccc2c1/C=C1\C(=O)NC(=O)N(c2cc(OC)ccc2OC)C1=O
EC50 (cells [1]): 73.1 µM (active) | EC50 (cells [2]): > 350 µM (not active)

CSc1nsc(SCC(=O)NCc2ccccc2)n1
IC50 [7]: > 66 µM (inactive) | IC50 [8]: > 66 µM (inactive)

Cc1noc(C)c1COc1ccc(C(=O)NNC(=O)c2ccccc2F)cc1
IC50 [17]: > 80 µM (inactive)

COc1cccc(-n2nc(-c3ccnn3-c3ccccc3)c(=O)n(C)c2=O)c1
EC50 [5]: > 120 µM (not active) | EC50 [6]: > 120 µM (not active) | EC50 [12]: 25.3 µM (active)

CN(C)Cc1ccccc1Sc1ccc(O)cc1O
AC50 [13]: 1.78 µM (active)

COc1cccc(/C=N/NC(=O)c2nc(-c3ccccc3)cc(-c3ccccc3)n2)c1O
EC50 (cells [1]): 86.6 µM (active) | EC50 (cells [2]): 12.8 µM (active) | EC50 [18]: > 150 µM (inactive) | EC50 [19]: 1.54 µM (active)

Cc1ccc(N2C(=O)CC(Sc3ccccc3C(=O)O)C2=O)c([N+](=O)[O-])c1 (centres undefined)
IC50 [7]: > 66 µM (inactive) | IC50 [8]: > 66 µM (inactive)
